For assay [1] the following is noted: 100 Russian patients with schizophrenia; cited from earlier work.
Assay [2] concerns the target D2R (Homo sapiens, UniProt P14416). As to conditions: cited from earlier work.
The target of assay [3] is T1, DISC1 (Rattus norvegicus, UniProt Q810H6).
T1 construct: from tissue; host or cells: rat striatum, solubilized
T1 sequence (Q810H6 1-846): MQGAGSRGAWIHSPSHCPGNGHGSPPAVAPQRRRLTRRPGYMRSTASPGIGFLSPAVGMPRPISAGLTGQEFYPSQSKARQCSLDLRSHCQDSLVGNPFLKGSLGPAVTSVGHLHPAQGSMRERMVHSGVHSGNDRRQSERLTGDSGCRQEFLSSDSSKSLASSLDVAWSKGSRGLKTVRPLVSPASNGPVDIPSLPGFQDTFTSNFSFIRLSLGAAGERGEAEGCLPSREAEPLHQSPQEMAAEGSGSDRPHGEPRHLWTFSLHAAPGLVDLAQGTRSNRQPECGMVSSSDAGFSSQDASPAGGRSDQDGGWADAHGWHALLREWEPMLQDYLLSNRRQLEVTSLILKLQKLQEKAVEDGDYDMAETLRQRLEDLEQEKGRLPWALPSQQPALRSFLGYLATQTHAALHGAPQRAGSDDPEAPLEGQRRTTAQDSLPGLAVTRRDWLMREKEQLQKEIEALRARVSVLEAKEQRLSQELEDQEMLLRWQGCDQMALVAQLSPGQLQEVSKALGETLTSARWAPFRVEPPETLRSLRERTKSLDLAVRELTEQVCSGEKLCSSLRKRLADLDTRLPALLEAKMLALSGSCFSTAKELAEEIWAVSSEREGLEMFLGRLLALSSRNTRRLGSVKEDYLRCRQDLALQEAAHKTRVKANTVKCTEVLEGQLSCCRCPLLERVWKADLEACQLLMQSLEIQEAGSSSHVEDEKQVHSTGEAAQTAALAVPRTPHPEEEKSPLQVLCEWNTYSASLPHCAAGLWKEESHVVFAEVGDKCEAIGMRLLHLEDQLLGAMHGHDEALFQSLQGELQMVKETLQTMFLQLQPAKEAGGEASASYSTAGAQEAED
The assay can be described thus: Affinity purification (pull-down) of DISC1 from solubilized striatal tissue by GST fusion proteins of D2R fragments. As to conditions: GST fusion protein. The class given is binding. The source says:
(A) Co-immunoprecipitation of DISC1 by D2 antibody in rat striatal tissue.
This method uses GST fusion proteins encoding the fragments of a test protein to affinity purify other proteins that may form complexes with the test protein in tissue from a specific brain region. Since DISC1 is an intracellular protein, we made GST-fusion proteins encoding two intracellular regions of D2R: the carboxyl tail (CT) of D2R (D2CT: T428-C443) and the third intracellular loop ([…]) of D2R (D2IL3: K211-Q373). Many dopamine receptor interacting proteins have been identified that interact with either the CT or the IL3 region of dopamine receptors (94). […] GST fusion proteins encoding these two fragments were made and used in the affinity purification experiment. […] Thus, we concluded that D2IL3-1-1 (SEQ ID NO:1) comprises the site for D2-DISC1 interaction.

The test system of assay [4] is GSK-3α/β phosphorylation. The assay can be described thus: Western blot of phosphorylated GSK-3α/β (Ser-21/9) in transfected HEK-293T cells. The class given is cell-based. Here is the method:
(A) Western blot analysis of phosphorylated GSK-3α/β levels in extract prepared from transfected HEK293T cells in the presence or absence of DA. Alpha-tubulin was used as loading controls. (B) Densitometric analysis. Data are analyzed by t-test. (C) Cyclic AMP analysis in transfected HEK293T cells in the presence or absence of Foskolin and Quinpirole. Data are analyzed by one-way ANOVA. Data are means±SEM. Numbers of samples per group (n) are indicated. CTRL: Control; DA: Dopamine.
Alpha-tubulin was used as loading controls. CTRL: Control; DA: Dopamine.
Currently, all studies related to D2R-mediated Akt/GSK-3 signaling were carried out in brain tissue, where the expression of D2R and DISC1 was confirmed (11,89,99). At least to our knowledge, there are no studies of D2R-mediated Akt/GSK-3 signaling in HEK-293T cells. Furthermore, there is no evidence indicating the existence of endogenous DISC1 in HEK-293T cells. […] The intensity of phosphor-GSK-3α Ser-21 and […] binding was quantified by densitometry (software: AIS Imaging Research Inc) (FIG. 1B). […] acted as a loading control in this experiment. […]

The test system of assay [5] is D2-DISC1 interaction. Nature of the assay: Apomorphine-induced disruption of pre-pulse inhibition (PPI) of the acoustic startle reflex in rats. It is filed as in vivo, rat. To be noted: for Effect on apomorphine-induced disruption of PPI: apomorphine 0.3 mg/kg SC, peptide ICV (1 mM, 4 μl; 40 nmol), n=5 per group. The source says: PPI of the acoustic startle reflex is a sensorimotor gating process known to be deficient in a number of neurologic and psychiatric conditions including, but not limited to schizophrenia, Huntington's disease, Tourette's syndrome, and obsessive compulsive disorder (OCD).

The subject of assay [6] is DISC1NT. The assay can be described thus: In vitro binding assay with [35S]-DISC1NT probe. As to conditions: glutathione beads with GST-fusion protein, autoradiography. The procedure: (§1) To construct GST-fusion proteins encoding truncated D2113, cDNA fragments were amplified by PCR with specific primers. All 5′ and 3′ oligonucleotides incorporated BamH1 site (GGATCC) and Xho1 sites (CTCGAG), respectively, to facilitate subcloning into vector pGEX-4T3 (for GST-fusion protein construction). GST-fusion proteins were prepared from bacterial lysates as described by the manufacturer (Amersham). To confirm appropriate splice fusion and the absence of spurious PCR generated nucleotide errors, all constructs were resequenced. For in vitro binding assays, the probes were made with DISC1-NT or DISC1-CT subcloned into mammalian expression vector pCDNA3 using TNT® T7 Quick Coupled Transcription/Translation System (Promega, Madison, Wis.) and [35S] methionine (PerkinElmer, Waltham, Mass.). Glutathione beads carrying 20 μg GST-fusion proteins of D2IL3 or GST alone were incubated at room temperature for 1 hour with [35S] methionine-labeled […] probe, respectively. The beads were then washed six times with PBS containing 0.1-0.5% (V/V) Triton X-100 and eluted with 10 mM glutathione elution buffer. Eluates were separated by SDS-PAGE and visualized by autoradiography using BioMax (Kodak) film.

In assay [7] the test system is DISC1CT. Nature of the assay: In vitro binding assay with [35S]-DISC1CT probe. To be noted: glutathione beads with GST-fusion protein, autoradiography. The procedure:
as §1

Assay [8] has as its target T2, Disrupted-in-schizophrenia-1 (DISC1), endogenous, in solubilized rat striatal tissue (rat, UniProt Q810H6 1-846, limits assumed).
T2 construct: Endogenous protein in a tissue extract
T2 sequence (looked up): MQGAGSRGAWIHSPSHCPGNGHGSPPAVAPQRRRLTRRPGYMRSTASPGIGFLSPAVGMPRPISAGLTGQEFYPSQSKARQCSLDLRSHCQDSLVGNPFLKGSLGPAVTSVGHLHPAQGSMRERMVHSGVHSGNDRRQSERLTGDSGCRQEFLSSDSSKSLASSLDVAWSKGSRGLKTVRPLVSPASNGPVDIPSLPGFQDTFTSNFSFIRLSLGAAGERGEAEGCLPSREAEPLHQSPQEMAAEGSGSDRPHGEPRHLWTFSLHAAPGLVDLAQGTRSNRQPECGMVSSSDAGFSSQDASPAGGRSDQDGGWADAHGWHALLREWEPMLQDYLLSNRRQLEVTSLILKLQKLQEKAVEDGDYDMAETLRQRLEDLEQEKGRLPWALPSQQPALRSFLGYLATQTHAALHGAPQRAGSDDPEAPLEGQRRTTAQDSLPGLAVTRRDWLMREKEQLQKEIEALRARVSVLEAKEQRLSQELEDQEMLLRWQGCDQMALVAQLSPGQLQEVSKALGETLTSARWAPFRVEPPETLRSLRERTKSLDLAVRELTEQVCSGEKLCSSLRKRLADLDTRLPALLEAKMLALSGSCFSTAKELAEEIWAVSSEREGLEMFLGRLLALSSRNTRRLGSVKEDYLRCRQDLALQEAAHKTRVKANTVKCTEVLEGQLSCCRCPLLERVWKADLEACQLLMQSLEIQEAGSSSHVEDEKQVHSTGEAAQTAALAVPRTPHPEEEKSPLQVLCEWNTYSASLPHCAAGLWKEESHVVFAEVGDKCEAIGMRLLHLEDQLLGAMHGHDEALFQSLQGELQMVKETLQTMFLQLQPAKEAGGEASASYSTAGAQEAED
The assay can be described thus: co-immunoprecipitation from rat striatal tissue with D1R antibody (data not shown).

“Also recorded” adds a separate entry of the source. Where two headings read alike, the source gives them in different places. Where no end group is shown, it is not given here.

D2R, sequence (P14416 whole entry): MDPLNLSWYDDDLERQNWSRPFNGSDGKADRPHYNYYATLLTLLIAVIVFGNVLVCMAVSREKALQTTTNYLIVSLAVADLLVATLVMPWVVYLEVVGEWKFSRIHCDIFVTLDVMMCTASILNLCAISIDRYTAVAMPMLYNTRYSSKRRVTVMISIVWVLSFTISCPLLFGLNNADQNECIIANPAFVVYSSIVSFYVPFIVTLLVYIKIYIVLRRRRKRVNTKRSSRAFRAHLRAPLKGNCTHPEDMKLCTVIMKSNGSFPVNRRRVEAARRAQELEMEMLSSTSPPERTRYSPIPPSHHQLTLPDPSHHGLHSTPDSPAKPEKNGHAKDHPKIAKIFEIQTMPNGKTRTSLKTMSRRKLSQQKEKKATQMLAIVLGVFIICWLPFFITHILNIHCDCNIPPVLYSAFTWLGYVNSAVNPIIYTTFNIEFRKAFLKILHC
D2-DISC1 interaction, sequence (P61169 whole entry, one chain of several): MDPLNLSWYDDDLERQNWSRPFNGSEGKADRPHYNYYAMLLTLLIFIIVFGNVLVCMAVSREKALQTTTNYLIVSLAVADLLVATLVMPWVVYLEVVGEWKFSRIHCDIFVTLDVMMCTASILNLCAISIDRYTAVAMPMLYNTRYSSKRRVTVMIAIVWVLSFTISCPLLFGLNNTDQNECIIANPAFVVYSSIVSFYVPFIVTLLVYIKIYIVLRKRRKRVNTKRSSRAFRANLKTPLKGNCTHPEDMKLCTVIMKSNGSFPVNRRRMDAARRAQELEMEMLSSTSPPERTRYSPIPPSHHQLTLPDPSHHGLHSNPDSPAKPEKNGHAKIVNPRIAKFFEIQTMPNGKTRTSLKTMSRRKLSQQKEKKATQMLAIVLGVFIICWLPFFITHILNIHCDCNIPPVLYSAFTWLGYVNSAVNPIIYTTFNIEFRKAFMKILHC
DISC1NT, sequence (Q9NRI5 1-75 limits assumed): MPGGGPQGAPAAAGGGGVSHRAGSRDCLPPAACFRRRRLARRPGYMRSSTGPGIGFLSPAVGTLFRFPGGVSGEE

On to `N[C@@]1(C(=O)O)CS(=O)(=O)[C@H]2[C@H](C(=O)O)[C@H]21` [LY404,039], for which, in assay [1], the “Clinical effectiveness in schizophrenia” value is listed as “significantly effective”.
For `O=C1Cc2cc(CCN3CCN(c4nsc5ccccc45)CC3)c(Cl)cc2N1` [ziprasidone], in assay [2] (induced by activation of D2R), the “Antagonism of β-arrestin 2 recruitment to D2R” value (“Antagonism” for short) is given as “potently antagonize”.
With “GST-D2IL3-1: GST fusion protein of D2IL3-1: K211-V270 (KIYIVLRRRRKRVNTKRSSRAFRAHLRAPLKGNCTHPEDMKLCTVIMKSNGSFPVNRRRV; cysteine pairing not given here; also: GST fusion; UniProt P14416 211-270, looked up, fragment)”, the “Pull-down (precipitation) of DISC1” value in assay [3] was “Affinity pull-down of the DISC1; also recorded: recognizes and precipitates DISC1”.
With `NCCc1ccc(O)c(O)c1` [dopamine], the “Phosphorylation of GSK3α/β” value in assay [4] (HEK-293T cells co-expressing D2R and DISC1, 10 μM dopamine, 30 min) was “significantly decreased”; in assay [4] (HEK-293T cells expressing D2R with pcDNA3, dopamine), “failed to alter”.
With “TAT-D2pep-sc: scrambled peptide YGRKKRRQRRRVLRKTRIRRYKIRNV (SEQ ID NO:3) (TAT-D2 scrambled fusion protein)”, the “Effect on apomorphine-induced disruption of PPI” value in assay [5] (rats) was “did not affect the response to apomorphine”; in assay [5] (rats, listed as TAT-D2pep-scramb), “no effect”. The “Effect on basal PPI (degree of PPI without apomorphine)” value in assay [5] (rats, peptide ICV) is recorded as “did not affect”.
In the case of “GST-D2CT: GST-fusion protein of the carboxyl tail of D2R (D2CT: T428-C443) (TFNIEFRKAFLKILHC; also: GST fusion; UniProt P14416 428-443, looked up, fragment)”, the “Pull-down (precipitation) of DISC1” value in assay [3] is given as “not”.
On to “GST-D2IL3-1-1: GST fusion of D2IL3-1-1: K211-T225, KIYIVLRRRRKRVNT (SEQ ID NO:1) (also: GST fusion; UniProt P14416 211-225, looked up, fragment)”, for which, in assay [3], the “Pull-down (precipitation) of DISC1” value was “Affinity pull-down of the DISC1; also recorded: recognizes and precipitates DISC1”. In addition, the “Binding of [35S]-DISC1NT probe” value in assay [6] is on record as “bound”. For the same molecule, the “Binding of [35S]-DISC1CT probe” value in assay [7] is “not”.
Consider “GST-D2IL3-1-2: GST fusion of D2IL3-1-2: K226-L240 (KRSSRAFRAHLRAPL; also: GST fusion; UniProt P14416 226-240, looked up, fragment)”, for which, in assay [3], the “Pull-down (precipitation) of DISC1” value is on record as “failed to”.
In the case of `CN1CCc2cccc3c2[C@H]1Cc1ccc(O)c(O)c1-3` [apomorphine], the “Effect on PPI in comparison with saline/vehicle” value in assay [5] (rat, in vivo) was “reduced levels of PPI at all 3 prepulse intensities; also recorded: significantly disrupted PPI”.
On to `Cc1nc2n(c(=O)c1CCN1CCC(c3noc4cc(F)ccc34)CC1)CCCC2` [risperidone], for which, in assay [2], the “Antagonism” value is reported as “potently antagonize”.
As for `OCCOCCN1CCN(C2=Nc3ccccc3Sc3ccccc32)CC1` [quetiapine], in assay [2] (induced by activation of D2R), the “Antagonism” value is on record as “potently antagonize”.

B1: Dopamine D1 receptor (D1R), endogenous, in rat striatal tissue (receptor, UniProt P18901 1-446, looked up)
chain: MAPNTSTMDEAGLPAERDFSFRILTACFLSLLILSTLLGNTLVCAAVIRFRHLRSKVTNFFVISLAVSDLLVAVLVMPWKAVAEIAGFWPLGPFCNIWVAFDIMCSTASILNLCVISVDRYWAISSPFQYERKMTPKAAFILISVAWTLSVLISFIPVQLSWHKAKPTWPLDGNFTSLEDTEDDNCDTRLSRTYAISSSLISFYIPVAIMIVTYTSIYRIAQKQIRRISALERAAVHAKNCQTTAGNGNPVECAQSESSFKMSFKRETKVLKTLSVIMGVFVCCWLPFFISNCMVPFCGSEETQPFCIDSITFDVFVWFGWANSSLNPIIYAFNADFQKAFSTLLGCYRLCPTTNNAIETVSINNNGAVVFSSHHEPRGSISKDCNLVYLIPHAVGSSEDLKKEEAGGIAKPLEKLSPALSVILDYDTDVSLEKIQPVTHSGQHST
In the case of B1, the binding result in assay [8] is recorded as “no binding”.
